Experimental data taken from patent publication US6713468B2, “Methods of using thiazolobenzoheterocycles” (Aventis Pharma S.A., priority 1997, dated 2004).

Compound | melting point [°C]
N=c1sc2cc(OC(F)(F)F)cc3c2n1CC(=O)N3 [Example 37, 2-imino-8-trifluoromethoxy-2H,4H-thiazolo[3,4,5-de]quinoxalin-5(6H)-one] | 255
N=c1sc2cc(OC(F)(F)F)cc3c2n1CCC3=O [Example 8, 2-imino-8-trifluoromethoxy-2H,4H-thiazolo-[5,4,3-ij]quinolin-6-one] | 192
